According to ChEMBL document CHEMBL1201862, “PubChem BioAssay data set” (2004):
The source made the active and inactive calls.

What was measured:
[1] = target: DNA dC->dU-editing enzyme APOBEC-3G (Homo sapiens, UniProt Q9HC16); assay: Dose Response confirmation of small molecule APOBEC3G DNA Deaminase Inhibitors via a fluorescence-based single-stranded DNA deaminase assay. [Related pubchem assays (depositor defined):AID493012, AID493028]; assay type: functional
[2] = target: DNA dC->dU-editing enzyme APOBEC-3A (Homo sapiens, UniProt P31941); assay: A3A deaminase inhibition for selectivity – biochemical, dose response (AID 504722); assay type: functional
[3] = target: T1, Probable nicotinate-nucleotide adenylyltransferase (Staphylococcus aureus (strain N315), UniProt P65502); assay type: functional, Staphylococcus aureus subsp. aureus N315; conditions: read-out: IC50_Mean;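 on IC50 Mean: confirmatory dose-response retesting of NadD inhibitor hits first found in an ultra-high-throughput screen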
[4] = target: T2, Carboxy-terminal domain RNA polymerase II polypeptide A small phosphatase 1 (Homo sapiens, UniProt Q9GZU7); assay: CTDSP1 inhibitors, concentration-response, biochemical, absorbance readout, ultra-high-throughput screen actives (AID 540297); assay type: functional
T2 sequence (Q9GZU7 whole entry): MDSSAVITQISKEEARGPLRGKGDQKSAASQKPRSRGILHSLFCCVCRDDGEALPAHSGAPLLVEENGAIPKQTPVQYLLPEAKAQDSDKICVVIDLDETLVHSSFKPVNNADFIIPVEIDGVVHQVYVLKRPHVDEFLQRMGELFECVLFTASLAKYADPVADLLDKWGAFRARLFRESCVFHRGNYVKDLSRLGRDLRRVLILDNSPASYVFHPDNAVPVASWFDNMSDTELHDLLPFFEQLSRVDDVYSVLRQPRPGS

[5] = target: T1, Probable nicotinate-nucleotide adenylyltransferase; assay type: functional, Staphylococcus aureus subsp. aureus N315
[6] = target: Voltage-dependent T-type calcium channel subunit alpha-1H (Homo sapiens, UniProt O95180); assay type: functional;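 further: channel activity triggered by adding a high calcium stimulation buffer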
[7] = NIH3T3 cell viability loss – ATP luminescence, mouse fibroblasts, counter-screen, dose response (AID 2010); assay type: functional, cell-based;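 further: cells exposed to compound for about 90 hours before reading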
[8] = Intein inhibitors as potential Tuberculosis drugs, a cytotoxicity screen. [Related pubchem assays (depositor defined):AID2221, AID2223, AID434968, AID435010, AID449749, AID449750, AID489010]; assay type: functional
[9] = target: T3, Replicative DNA helicase DnaB (Mycobacterium tuberculosis, UniProt P9WMR3); assay: DnaB intein splicing inhibitors, dose response, biochemical, cell-free fluorescence (AID 449749); assay type: functional
T3 sequence (P9WMR3 whole entry): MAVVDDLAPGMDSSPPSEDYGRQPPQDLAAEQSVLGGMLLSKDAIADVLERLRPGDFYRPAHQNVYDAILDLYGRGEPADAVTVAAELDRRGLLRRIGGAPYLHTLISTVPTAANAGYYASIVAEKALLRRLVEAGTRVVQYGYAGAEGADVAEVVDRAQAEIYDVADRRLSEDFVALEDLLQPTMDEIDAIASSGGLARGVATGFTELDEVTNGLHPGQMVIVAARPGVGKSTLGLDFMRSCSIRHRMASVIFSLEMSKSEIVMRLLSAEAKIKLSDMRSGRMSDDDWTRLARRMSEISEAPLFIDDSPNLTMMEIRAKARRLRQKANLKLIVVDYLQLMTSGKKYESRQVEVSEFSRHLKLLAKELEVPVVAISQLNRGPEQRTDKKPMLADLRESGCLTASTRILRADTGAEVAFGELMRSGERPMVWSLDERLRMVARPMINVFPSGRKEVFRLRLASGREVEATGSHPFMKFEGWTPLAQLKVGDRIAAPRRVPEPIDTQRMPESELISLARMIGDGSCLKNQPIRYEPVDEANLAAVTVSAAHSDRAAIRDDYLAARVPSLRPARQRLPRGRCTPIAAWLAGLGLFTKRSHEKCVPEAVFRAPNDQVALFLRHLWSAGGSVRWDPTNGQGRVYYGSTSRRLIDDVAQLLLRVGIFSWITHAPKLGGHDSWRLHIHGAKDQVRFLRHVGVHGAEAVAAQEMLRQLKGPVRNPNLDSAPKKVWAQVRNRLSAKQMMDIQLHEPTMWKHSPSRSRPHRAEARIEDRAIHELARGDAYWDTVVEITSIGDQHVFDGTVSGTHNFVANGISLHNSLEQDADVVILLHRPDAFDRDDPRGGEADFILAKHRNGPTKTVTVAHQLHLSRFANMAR

[10] = Trypanosoma cruzi growth suppression in host cells – NIH3T3 host cells, beta-gal luminescence, confirmation (AID 2044); assay type: functional, cell-based;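 further: intracellular parasites grown in NIH/3T3 mouse fibroblasts as host cells; luminescent beta-galactosidase reporter signal from transgenic T. cruzi replicating inside host cells; inhibitors lower the luminescence signal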
Protein RecA = target: T4, Protein RecA (Mycobacterium tuberculosis, UniProt P9WHJ3); assay: Fluorescence Cell-Free Homogeneous Dose Retest to Identify Inhibitors of RecA-Intein Splicing Activity. [Related pubchem assays (depositor defined):AID2097, AID2223, AID489010, AID492950]; assay type: functional
T4 sequence (P9WHJ3 whole entry): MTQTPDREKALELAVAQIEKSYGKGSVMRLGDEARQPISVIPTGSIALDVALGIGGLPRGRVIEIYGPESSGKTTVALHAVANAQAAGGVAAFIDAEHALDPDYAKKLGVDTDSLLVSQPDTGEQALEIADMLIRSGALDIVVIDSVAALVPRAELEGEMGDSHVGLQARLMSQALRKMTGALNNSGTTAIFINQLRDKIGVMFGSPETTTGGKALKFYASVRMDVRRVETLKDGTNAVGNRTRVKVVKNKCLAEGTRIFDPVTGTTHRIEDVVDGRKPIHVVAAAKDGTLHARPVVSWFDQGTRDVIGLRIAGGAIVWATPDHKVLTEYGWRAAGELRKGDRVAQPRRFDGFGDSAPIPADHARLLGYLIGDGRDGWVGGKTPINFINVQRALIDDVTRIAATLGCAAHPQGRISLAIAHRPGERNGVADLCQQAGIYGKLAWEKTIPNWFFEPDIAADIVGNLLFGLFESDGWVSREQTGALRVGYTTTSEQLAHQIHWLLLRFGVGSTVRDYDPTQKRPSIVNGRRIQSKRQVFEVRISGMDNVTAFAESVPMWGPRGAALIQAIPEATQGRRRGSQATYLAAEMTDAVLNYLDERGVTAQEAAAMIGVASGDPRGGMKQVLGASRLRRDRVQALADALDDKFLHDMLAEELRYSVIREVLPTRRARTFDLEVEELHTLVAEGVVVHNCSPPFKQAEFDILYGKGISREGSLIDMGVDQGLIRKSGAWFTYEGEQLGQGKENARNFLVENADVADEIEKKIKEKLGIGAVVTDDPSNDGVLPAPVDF

INS1 = assay: INS-1E survival protection against cytokine death – cell-based, luminescence, retest, dose response (AID 449756); assay type: functional; conditions: Rattus norvegicus;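 further: cell death triggered by IL-1 beta plus TNF-alpha plus IFN-gamma mixture; protective hits raise ATP signal compared with cytokine alone wells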
[11] = target: G-protein coupled receptor 55 (Homo sapiens, UniProt Q9Y2T6); assay: inhibition of LPI-stimulated GPR55 beta-arrestin translocation – imaging, U2OS, beta-arrestin-GFP, LPI agonist, primary screen (AID 2013); assay type: functional;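 further: antagonist potency measured as reduced agonist-driven arrestin aggregation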
Genome polyprotein = Genome polyprotein (dengue virus type 2, UniProt P29990); assay: flavivirus cap methylation enzyme inhibition – biochemical, confirmation dose response, primary screen (AID 588689); assay type: functional
[12] = target: T5, Zinc finger protein mex-5 (Caenorhabditis elegans, UniProt Q9XUB2); assay: potency of MEX-5 RNA-binding blockers – biochemical, C. elegans, fluorescence polarization, dose response (AID 1960)
T5 sequence (Q9XUB2 whole entry): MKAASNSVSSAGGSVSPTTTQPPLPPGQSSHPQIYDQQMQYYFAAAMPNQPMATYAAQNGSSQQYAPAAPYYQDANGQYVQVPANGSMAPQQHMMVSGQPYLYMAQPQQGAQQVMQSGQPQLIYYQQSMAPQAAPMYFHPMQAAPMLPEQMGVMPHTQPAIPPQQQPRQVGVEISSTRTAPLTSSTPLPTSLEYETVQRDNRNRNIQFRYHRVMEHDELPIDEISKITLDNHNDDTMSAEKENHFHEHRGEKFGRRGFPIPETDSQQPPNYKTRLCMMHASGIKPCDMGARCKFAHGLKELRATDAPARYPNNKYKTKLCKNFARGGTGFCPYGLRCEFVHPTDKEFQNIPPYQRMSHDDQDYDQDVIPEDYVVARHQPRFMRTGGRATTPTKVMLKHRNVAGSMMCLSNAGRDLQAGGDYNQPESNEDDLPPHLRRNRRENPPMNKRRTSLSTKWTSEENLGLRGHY

[13] = target: T6, RNA-binding protein pos-1 (Caenorhabditis elegans, UniProt G5EF15); assay: disruptors of C. elegans POS-1 RNA interaction – biochemical, fluorescence polarization, dose response (AID 1964);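 further: purified POS-1 fused to maltose binding protein made in E. coli; potency of compounds blocking POS-1 binding to fluorescent RNA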
T6 sequence (G5EF15 whole entry): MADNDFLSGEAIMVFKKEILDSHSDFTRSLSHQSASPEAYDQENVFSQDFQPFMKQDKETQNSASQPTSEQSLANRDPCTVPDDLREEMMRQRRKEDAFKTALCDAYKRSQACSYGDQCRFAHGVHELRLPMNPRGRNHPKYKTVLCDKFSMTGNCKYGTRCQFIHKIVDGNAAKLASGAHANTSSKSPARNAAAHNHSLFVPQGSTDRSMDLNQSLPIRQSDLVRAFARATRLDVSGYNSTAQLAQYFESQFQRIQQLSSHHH

Caspase-6 = target: T7, Caspase-6 (Homo sapiens, UniProt P55212); assay: inhibition of CASP6 peptide cleavage – biochemical, VEID-R110 fluorescence, cherry-pick, dose response (AID 720632)
T7 sequence (P55212 whole entry): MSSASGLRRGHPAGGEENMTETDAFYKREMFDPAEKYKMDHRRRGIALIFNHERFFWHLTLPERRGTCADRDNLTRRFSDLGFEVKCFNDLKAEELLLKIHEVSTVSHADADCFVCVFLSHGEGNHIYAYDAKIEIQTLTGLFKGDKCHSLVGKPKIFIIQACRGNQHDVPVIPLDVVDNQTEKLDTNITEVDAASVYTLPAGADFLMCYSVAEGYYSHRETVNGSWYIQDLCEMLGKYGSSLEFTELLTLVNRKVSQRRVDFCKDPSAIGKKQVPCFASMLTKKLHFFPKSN

Fatty acid synthase [14] = target: T8, Fatty acid synthase (Homo sapiens, UniProt P49327); assay: inhibition of human FAS-TE enzyme activity – biochemical, kinetic fluorescence intensity, dose response (AID 624326); assay type: functional;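 further: rate of fluorescence rise from hydrolysis of a fluorogenic O-methyl fluorescein ester substrate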
Leucine aminopeptidase = target: T9, Leucine aminopeptidase (Plasmodium falciparum 3D7, UniProt Q8IL11); assay: P. falciparum M17LAP inhibitors, primary screen, biochemical, fluorogenic H-Leu-NHMec substrate, 1536-well (AID 1619); assay type: functional
T9 sequence (Q8IL11 whole entry): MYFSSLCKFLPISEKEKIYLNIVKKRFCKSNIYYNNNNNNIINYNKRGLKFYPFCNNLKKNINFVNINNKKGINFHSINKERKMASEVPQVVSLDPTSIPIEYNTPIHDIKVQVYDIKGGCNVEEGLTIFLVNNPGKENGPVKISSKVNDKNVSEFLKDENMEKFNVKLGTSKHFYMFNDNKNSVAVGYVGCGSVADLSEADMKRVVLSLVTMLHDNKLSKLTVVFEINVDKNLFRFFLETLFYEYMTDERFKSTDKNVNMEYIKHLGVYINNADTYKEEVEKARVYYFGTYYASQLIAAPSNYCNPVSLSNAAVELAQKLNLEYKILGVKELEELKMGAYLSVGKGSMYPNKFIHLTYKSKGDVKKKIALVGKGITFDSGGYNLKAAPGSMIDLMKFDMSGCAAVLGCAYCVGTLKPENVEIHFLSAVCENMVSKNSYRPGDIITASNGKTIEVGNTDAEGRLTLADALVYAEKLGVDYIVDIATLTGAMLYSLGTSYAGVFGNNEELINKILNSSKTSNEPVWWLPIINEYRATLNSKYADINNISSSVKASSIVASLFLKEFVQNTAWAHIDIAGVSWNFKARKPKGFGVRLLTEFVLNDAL

Fatty acid synthase [15] = target: T8, Fatty acid synthase; assay: inhibition of human FAS-TE enzyme activity – biochemical, endpoint fluorescence intensity, uHTS hits, dose response (AID 624327); assay type: functional;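 further: fluorescence from hydrolysis of an O-methyl fluorescein acyl ester substrate by the enzyme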
[16] = target: Induced myeloid leukemia cell differentiation protein Mcl-1 (Homo sapiens, UniProt Q07820); assay type: functional
[17] = HEK-293T cell viability reduction – luminescence, B-cell screen hits, cytotoxicity control for BCR NF-kB inhibitor project, dose response (AID 489021); assay type: functional, cell-based;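 further: HEK-293T cells carrying an NF-kB luciferase reporter; cells exposed to compound for about 14 hours before viability readout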
Large T antigen = Large T antigen (Simian virus 40, UniProt P03070); assay type: functional, Betapolyomavirus macacae;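 further: Confirmatory-stage PubChem screen for compounds that inhibit SV40 T antigen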
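Wherever CC50 is given: cells exposed to compound for 72 hours before luminescence readout.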

DNA dC->dU-editing enzyme APOBEC-3G, sequence (Q9HC16 whole entry): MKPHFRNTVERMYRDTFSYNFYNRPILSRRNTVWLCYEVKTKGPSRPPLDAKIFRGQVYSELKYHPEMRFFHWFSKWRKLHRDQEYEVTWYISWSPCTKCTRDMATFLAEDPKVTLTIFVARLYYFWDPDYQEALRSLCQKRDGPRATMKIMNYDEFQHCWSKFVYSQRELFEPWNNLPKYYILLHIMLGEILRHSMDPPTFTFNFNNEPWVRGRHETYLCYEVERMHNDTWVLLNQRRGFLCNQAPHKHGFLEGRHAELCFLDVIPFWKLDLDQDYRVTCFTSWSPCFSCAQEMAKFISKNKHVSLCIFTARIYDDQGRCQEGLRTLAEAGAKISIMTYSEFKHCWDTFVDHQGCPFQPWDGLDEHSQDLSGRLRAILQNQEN
DNA dC->dU-editing enzyme APOBEC-3A, sequence (P31941 whole entry): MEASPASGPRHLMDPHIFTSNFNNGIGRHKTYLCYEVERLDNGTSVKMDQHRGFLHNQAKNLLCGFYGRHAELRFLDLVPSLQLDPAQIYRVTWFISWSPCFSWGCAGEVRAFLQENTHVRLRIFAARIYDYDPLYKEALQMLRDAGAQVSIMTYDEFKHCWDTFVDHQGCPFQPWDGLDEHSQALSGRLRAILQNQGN
G-protein coupled receptor 55, sequence (Q9Y2T6 whole entry): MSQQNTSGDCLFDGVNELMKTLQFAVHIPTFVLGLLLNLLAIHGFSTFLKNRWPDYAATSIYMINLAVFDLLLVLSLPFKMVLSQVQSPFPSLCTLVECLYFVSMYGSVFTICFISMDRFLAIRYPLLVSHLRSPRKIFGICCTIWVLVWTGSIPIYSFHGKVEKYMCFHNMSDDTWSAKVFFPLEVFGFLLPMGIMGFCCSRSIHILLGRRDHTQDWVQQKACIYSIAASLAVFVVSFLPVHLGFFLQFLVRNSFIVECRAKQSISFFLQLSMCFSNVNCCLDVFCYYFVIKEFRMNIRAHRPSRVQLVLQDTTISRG
Voltage-dependent T-type calcium channel subunit alpha-1H, sequence (O95180 whole entry): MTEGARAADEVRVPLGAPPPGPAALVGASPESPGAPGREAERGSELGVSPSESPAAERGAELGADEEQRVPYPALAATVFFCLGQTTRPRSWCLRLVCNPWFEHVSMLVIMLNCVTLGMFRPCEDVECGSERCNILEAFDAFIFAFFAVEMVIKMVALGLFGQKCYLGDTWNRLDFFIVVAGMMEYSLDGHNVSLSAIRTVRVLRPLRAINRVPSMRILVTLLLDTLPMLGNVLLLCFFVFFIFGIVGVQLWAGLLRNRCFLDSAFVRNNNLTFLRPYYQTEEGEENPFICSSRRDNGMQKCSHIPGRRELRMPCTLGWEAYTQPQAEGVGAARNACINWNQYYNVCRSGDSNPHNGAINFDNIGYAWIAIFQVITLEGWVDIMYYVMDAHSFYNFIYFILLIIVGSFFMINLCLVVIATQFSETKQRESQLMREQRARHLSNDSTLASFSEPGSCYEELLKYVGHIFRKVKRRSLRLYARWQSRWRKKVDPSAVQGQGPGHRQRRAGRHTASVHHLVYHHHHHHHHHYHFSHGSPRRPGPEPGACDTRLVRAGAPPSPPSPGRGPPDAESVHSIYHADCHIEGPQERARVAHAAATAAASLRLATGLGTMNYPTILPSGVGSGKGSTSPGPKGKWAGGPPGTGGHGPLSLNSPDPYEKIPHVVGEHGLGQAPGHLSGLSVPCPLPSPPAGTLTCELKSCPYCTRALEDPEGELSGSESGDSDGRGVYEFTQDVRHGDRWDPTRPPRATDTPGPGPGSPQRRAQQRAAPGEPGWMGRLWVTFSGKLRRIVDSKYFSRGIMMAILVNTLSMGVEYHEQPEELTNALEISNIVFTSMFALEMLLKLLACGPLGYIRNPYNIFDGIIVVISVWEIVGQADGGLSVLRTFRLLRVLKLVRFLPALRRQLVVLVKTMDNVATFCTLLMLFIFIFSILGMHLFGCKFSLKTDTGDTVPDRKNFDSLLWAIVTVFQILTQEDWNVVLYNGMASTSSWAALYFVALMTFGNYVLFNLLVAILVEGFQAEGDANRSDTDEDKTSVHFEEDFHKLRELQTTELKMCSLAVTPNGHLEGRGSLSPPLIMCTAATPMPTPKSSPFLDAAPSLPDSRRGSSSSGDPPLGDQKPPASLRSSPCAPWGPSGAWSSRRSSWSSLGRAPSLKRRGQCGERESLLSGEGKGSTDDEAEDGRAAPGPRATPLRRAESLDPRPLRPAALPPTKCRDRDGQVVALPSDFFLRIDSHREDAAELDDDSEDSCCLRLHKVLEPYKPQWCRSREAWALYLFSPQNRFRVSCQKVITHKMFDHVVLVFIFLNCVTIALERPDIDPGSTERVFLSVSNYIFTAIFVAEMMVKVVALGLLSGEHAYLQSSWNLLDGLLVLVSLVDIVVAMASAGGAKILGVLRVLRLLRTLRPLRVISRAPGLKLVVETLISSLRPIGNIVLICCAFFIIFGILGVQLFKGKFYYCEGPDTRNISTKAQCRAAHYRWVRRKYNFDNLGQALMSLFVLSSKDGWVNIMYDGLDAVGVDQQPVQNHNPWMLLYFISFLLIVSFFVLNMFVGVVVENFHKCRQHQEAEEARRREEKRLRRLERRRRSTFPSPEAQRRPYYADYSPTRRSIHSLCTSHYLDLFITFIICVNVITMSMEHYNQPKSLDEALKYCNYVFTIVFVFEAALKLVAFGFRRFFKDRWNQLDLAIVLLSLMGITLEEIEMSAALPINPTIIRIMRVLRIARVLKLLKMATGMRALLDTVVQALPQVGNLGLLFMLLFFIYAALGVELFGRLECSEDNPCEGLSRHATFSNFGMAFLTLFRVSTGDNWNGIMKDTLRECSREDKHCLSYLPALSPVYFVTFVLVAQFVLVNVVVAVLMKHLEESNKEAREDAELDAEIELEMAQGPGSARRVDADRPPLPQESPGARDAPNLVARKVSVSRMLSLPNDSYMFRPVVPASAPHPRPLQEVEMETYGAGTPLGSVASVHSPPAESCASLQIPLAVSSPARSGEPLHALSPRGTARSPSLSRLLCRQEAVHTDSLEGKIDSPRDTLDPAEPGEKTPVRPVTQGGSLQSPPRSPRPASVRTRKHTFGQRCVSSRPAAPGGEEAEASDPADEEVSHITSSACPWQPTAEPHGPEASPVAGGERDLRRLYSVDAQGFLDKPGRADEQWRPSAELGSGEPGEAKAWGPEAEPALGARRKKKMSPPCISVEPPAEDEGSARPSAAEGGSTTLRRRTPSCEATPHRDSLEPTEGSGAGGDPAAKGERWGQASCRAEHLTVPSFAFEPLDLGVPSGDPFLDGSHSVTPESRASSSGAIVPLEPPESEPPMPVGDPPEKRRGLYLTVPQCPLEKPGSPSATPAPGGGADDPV
T1 sequence (P65502 whole entry, the tested form may be a part): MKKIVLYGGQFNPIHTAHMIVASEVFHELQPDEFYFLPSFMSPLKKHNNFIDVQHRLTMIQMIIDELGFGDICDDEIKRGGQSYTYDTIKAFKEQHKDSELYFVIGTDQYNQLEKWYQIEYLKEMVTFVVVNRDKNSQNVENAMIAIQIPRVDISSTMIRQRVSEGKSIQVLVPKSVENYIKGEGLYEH
Induced myeloid leukemia cell differentiation protein Mcl-1, sequence (Q07820 whole entry): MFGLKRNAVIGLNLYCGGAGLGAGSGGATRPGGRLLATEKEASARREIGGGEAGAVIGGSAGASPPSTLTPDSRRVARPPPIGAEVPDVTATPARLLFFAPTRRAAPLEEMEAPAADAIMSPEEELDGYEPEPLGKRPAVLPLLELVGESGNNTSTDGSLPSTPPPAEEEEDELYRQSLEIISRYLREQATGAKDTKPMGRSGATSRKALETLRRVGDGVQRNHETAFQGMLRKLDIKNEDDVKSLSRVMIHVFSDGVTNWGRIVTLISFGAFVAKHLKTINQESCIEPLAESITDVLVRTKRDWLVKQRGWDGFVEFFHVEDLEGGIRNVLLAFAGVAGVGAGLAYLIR
Genome polyprotein, sequence (P29990 2492-3391 limits assumed): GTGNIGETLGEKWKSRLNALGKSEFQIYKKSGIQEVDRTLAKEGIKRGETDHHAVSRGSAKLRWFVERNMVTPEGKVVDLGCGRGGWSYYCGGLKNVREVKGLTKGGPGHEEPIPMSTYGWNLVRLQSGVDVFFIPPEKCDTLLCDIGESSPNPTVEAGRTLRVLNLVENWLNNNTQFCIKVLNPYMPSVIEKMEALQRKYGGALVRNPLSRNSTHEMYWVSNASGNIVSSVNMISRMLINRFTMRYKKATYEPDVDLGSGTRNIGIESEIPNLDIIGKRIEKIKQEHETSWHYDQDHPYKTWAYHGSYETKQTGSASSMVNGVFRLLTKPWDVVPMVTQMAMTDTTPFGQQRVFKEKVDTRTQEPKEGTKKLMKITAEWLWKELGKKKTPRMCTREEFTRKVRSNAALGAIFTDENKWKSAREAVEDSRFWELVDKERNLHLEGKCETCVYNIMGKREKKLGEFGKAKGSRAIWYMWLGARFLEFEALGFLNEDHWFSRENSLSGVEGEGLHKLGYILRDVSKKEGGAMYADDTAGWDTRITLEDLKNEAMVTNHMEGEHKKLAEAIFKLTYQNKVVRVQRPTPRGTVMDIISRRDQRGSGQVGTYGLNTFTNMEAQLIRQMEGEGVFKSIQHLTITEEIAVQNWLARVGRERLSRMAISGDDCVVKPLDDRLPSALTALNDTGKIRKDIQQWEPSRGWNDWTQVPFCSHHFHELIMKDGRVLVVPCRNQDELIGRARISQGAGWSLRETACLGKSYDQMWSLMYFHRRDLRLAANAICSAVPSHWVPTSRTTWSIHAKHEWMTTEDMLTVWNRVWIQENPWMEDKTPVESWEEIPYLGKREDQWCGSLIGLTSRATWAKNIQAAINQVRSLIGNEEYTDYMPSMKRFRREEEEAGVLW

Compound: C=CCn1c(S)nnc1CSc1nc2ccccc2s1
- IC50 [1]: 3.29 µM (active)
- IC50 [2]: > 100 µM (inactive)

Compound: CCN(CC)C(=O)CSc1ncnc2c(-c3cccs3)nsc12
- IC50 [1]: 17.8 µM (active)
- IC50 [3]: 37.6 µM (active)
- IC50 [2]: 61.2 µM (active)
- IC50 [4]: 3.16 µM (active)
- IC50 [5]: 12.9 µM (active)

Compound: O=C(CSc1nnc(-c2cccs2)n1Cc1ccccc1)NCc1ccc2c(c1)OCO2
- EC50 [6]: 10.2 µM (active)

Compound: Cc1cccc(Cn2nnc3c2C(=O)c2ccccc2C3=O)c1
- EC50 [7]: > 30 µM (not active)
- CC50 [8]: 11.7 µM (active)
- AC50 [9]: 4.2 µM (active)
- EC50 [10]: 2.58 µM (active)
- EC50 (Protein RecA): 0.446 µM (active)
- AC50 (INS1): 5.21 µM (active)

Compound: COc1ccc(S(=O)(=O)CC(=O)c2cc3cc(Br)ccc3oc2=O)cc1
- IC50 [11]: 2.11 µM (active)
- IC50 (Genome polyprotein): > 100 µM (active)

Compound: COc1ccc(N2C(=O)NC(=O)/C(=C\c3c[nH]c4ccc(Br)cc34)C2=O)c(OC)c1
- IC50 [11]: 1.66 µM (active)
- EC50 [12]: > 300 µM (inconclusive)
- EC50 [13]: > 300 µM (inconclusive)

Compound: O=C(NCc1ccccc1)C(c1ccccc1)N(Cc1ccc2c(c1)OCO2)C(=O)Cc1cccs1 (stereo unspecified)
- EC50 [6]: 5.37 µM (active)

Compound: C=CCOc1c(OC)cc(/C=N/Nc2cccc(C(=O)O)c2)c(Br)c1Br
- AC50 (Caspase-6): 19.2 µM (active)
- IC50 [11]: 2.92 µM (active)
- IC50 (Fatty acid synthase [14]): 3.06 µM (active)
- IC50 (Leucine aminopeptidase): < 1 µM (active)
- IC50 (Fatty acid synthase [15]): 3.82 µM (active)
- IC50 [16]: 5.84 µM (not active)

Compound: CC(C)Oc1ccc(C(=O)Nc2ccc(N(C)C)cc2)cc1
- IC50 [17]: > 80 µM (inactive)
- IC50 (Large T antigen): 25.3 µM (active)
- IC50 [16]: 4.48 µM (not active)

Compound: Sc1nnc(COc2ccccc2)n1/N=C/c1cccnc1
- IC50 [1]: 3.71 µM (active)
- IC50 [2]: > 100 µM (inactive)
